Data as given in patent US20100160335A1, “PYRIDAZINONE DERIVATIVE AND PDE INHIBITOR CONTAINING THE SAME AS ACTIVE INGREDIENT” (KYORIN PHARMACEUTICAL CO., LTD., priority 2007, published 2010).

Columns and labels:
[1] = molecular target: T1, PDE3A catalytic domain (PDE3Acat) (Homo sapiens, UniProt Q14432); assay: Phosphodiesterase inhibitory activity, PDE3 ([3H]cAMP, recombinant enzyme); format: biochemical; details: 30° C., 20 minutes, read-out: IC50(μmol/L) PDE3
T1 construct: made in house; host or cells: Sf9 insect cells (baculovirus, Bac-to-Bac / Gateway)
T1 sequence (Q14432 674-1093 limits assumed): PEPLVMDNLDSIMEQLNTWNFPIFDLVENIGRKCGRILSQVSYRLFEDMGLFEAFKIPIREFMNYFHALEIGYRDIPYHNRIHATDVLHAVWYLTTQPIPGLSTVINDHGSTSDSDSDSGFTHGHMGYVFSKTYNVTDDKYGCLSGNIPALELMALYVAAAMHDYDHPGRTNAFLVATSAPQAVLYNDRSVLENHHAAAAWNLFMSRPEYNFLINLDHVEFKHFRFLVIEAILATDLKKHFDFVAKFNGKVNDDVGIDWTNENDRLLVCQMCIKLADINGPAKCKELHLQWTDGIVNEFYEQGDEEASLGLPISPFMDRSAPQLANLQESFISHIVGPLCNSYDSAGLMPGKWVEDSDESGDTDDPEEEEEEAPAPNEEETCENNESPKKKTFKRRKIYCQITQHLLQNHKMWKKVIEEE

[2] = molecular target: T2, PDE4Bcat (Homo sapiens, UniProt Q07343); assay: Phosphodiesterase inhibitory activity, PDE4 ([3H]cAMP, recombinant enzyme); format: biochemical; details: 30° C., 20 minutes, read-out: IC50(μmol/L) PDE4
T2 construct: made in house; host or cells: Sf9 insect cells (baculovirus, Bac-to-Bac / Gateway)
T2 sequence (Q07343 330-659 limits assumed): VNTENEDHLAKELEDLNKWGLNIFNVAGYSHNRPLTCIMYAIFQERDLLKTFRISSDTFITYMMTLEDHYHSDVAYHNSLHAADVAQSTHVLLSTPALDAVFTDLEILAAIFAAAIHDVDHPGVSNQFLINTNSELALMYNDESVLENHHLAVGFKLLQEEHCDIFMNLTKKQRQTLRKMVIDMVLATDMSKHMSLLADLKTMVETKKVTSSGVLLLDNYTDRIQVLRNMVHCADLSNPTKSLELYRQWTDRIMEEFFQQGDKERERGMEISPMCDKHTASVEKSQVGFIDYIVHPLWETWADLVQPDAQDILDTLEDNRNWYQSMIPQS

[3] = test system: histamine-induced bronchoconstriction in guinea pigs; assay: Histamine-induced bronchoconstriction reaction in guinea pigs; format: in vivo; details: guinea pig, measured 30 seconds after administration; for inhibition in vivo at 0.1 mg/kg / inhibition in vivo at 0.3 mg/kg: Cavia porcellus, iv, 0.5 min, read-out: Inhibition rate (histamine-induced bronchoconstriction); for inhibition in vivo at 0.1 mg/kg: compound 0.1 mg/kg, i.v. (values in [ ])
Description: Guinea pigs were anesthetized with pentobarbital (30 mg/kg, i.p.). A cannula for intravenous administration was inserted into the left external jugular vein, a cannula for collecting blood and measuring blood pressure was inserted into the right internal carotid artery, and a tracheal cannula was inserted into the trachea. The guinea pigs were maintained on artificial respiration under the conditions of 60 times/min and 10 mL/kg/stroke. The airflow from the side branch of the tracheal cannula was measured by a bronchospasm transducer (Ugo-Basile) and recorded on a computer via Power Lab (ADInstruments Japan). The guinea pigs were immobilized with gallamine (10 mg/kg, i.v.), and histamine (12.5 μg/kg, i.v.) was administered at 10-minute intervals. After the histamine-induced bronchoconstriction became stable, the compound (0.3 mg/kg, i.v.) was administered. The histamine-induced bronchoconstriction reaction was measured 30 seconds after the compound administration to examine the bronchoconstriction inhibitory activity of the compound. The bronchoconstriction was recorded as the airflow value, and the results were represented by the ratio of the maximum value of the histamine- induced airflow 30 seconds after the administration to the maximum value of the airflow before the administration. Also, the test compounds dissolved in DMSO were used. Further, the indications were as follows: inhibition rate≧90% (+++), 90%>inhibition rate≧80% (++), and 80%>inhibition rate≧70% (+). [ ] means the results in the case of 0.1 mg/kg, i.v.

Compound	IC50 [1] [µmol/L]	IC50 [2] [µmol/L]	inhibition in vivo at 0.1 mg/kg [3] [%]	inhibition in vivo at 0.3 mg/kg ([3]; compound 0.3 mg/kg, i.v.) [%]	Inhibition rate (histamine-induced bronchoconstriction) ([3]; compound 0.3 mg/kg, i.v.)
CCc1ccc2c(C3=NN(CCCCOc4ccc(C5=NNC(=O)CC5)cc4)C(=O)CC3C)ccc(OC)c2n1 (stereo not drawn) [Example 296, 6-(2-Ethyl-8-methoxyquinolin-5-yl)-5-methyl-2-[4-[4-(6-oxo-1,4,5,6-tetrahydropyridazin-3-yl)phenoxy]butyl]-4,5-dihydro-2H-pyridazin-3-one]	1 to 10	< 0.1	80 to 90	–	–
CCc1ccc2c(C3=NN(CCCCOc4ccc(C5=NNC(=O)C5(C)C)c(F)c4F)C(=O)CC3C)ccc(OC)c2n1 (stereo not drawn) [Example 303, 6-(2-Ethyl-8-methoxyquinolin-5-yl)-5-methyl-2-[4-[2,3-difluoro-4-(4,4-dimethyl-5-oxo-4,5-dihydro-1H-pyrazol-3-yl)phenoxy]butyl]-4,5-dihydro-2H-pyridazin-3-one]	0.1 to 1	< 0.1	–	80 to 90	–
CCc1ccc2c(C3=NN(CCCOc4ccc(C5=NNC(=O)CC5C)cc4)C(=O)CC3C)ccc(OC)c2n1 (stereo not drawn) [Example 292]	1 to 10	0.1 to 1	–	80 to 90	–
CCc1ccc2c(C3=NN(CCCCOc4ccc(C5=NNC(=O)C5(C)C)cc4)C(=O)CC3C)ccc(OC)c2n1 (stereo not drawn) [Example 300, 6-(2-Ethyl-8-methoxyquinolin-5-yl)-5-methyl-2-[4-[4-(4,4-dimethyl-5-oxo-4,5-dihydro-1H-pyrazol-3-yl)phenoxy]butyl]-4,5-dihydro-2H-pyridazin-3-one]	1 to 10	< 0.1	–	70 to 80	–
COc1ccc(C2=NN(CCCCOc3ccc(C4=NNC(=O)CC4C)cc3)C(=O)CC2C)c2ccc(C)nc12 (stereo not drawn) [Example 267, 6-(8-Methoxy-2-methylquinolin-5-yl)-5-methyl-2-[4-[4-(4-methyl-6-oxo-1,4,5,6-tetrahydropyridazin-3-yl)phenoxy]butyl]-4,5-dihydro-2H-pyridazin-3-one]	0.1 to 1	< 0.1	–	≥ 90	–
CCc1ccc2c(C3=NN(CCOc4ccc(C5=NNC(=O)CC5C)cc4)C(=O)CC3C)ccc(OC)c2n1 (stereo not drawn) [Example 315, 6-(2-Ethyl-8-methoxyquinolin-5-yl)-5-methyl-2-[2-[4-(4-methyl-6-oxo-1,4,5,6-tetrahydropyridazin-3-yl)phenoxy]ethyl]-4,5-dihydro-2H-pyridazin-3-one]	1 to 10	< 0.1	–	70 to 80	–
CCc1ccc2c(C3=NN(CCCCOc4ccc(C5=NNC(=O)CC5C)c(F)c4F)C(=O)CC3C)ccc(OC)c2n1 (stereo not drawn) [Example 295, 6-(2-Ethyl-8-methoxyquinolin-5-yl)-5-methyl-2-[4-[2,3-difluoro-4-(4-methyl-6-oxo-1,4,5,6-tetrahydropyridazin-3-yl)phenoxy]butyl]-4,5-dihydro-2H-pyridazin-3-one]	< 0.1	< 0.1	80 to 90	–	–
CCc1ccc2c(-c3ccc(=O)n(CCCCOc4ccc(C5=NNC(=O)CC5C)cc4F)n3)ccc(OC)c2n1 (stereo not drawn) [Example 287, 6-(2-Ethyl-8-methoxyquinolin-5-yl)-2-[4-[2-fluoro-4-(4-methyl-6-oxo-1,4,5,6-tetrahydropyridazin-3-yl)phenoxy]butyl]-2H-pyridazin-3-one]	< 0.1	< 0.1	–	≥ 90	–
CCc1ccc2c(C3=NN(CCCCOc4ccc(C5=NNC(=O)CC5)cc4OC)C(=O)CC3C)ccc(OC)c2n1 (stereo not drawn) [Example 297, 6-(2-Ethyl-8-methoxyquinolin-5-yl)-5-methyl-2-[4-[2-methoxy-4-(6-oxo-1,4,5,6-tetrahydropyridazin-3-yl)phenoxy]butyl]-4,5-dihydro-2H-pyridazin-3-one]	1 to 10	0.1 to 1	–	≥ 90	–
CCc1ccc2c(C3=NN(CCCCOc4ccc(C5=NNC(=O)C5(C)C)cc4OC)C(=O)CC3C)ccc(OC)c2n1 (stereo not drawn) [Example 301, 6-(2-Ethyl-8-methoxyquinolin-5-yl)-5-methyl-2-[4-[2-methoxy-4-(4,4-dimethyl-5-oxo-4,5-dihydro-1H-pyrazol-3-yl)phenoxy]butyl]-4,5-dihydro-2H-pyridazin-3-one]	≥ 10	0.1 to 1	–	80 to 90	–
COc1ccc(-c2ccc(=O)n(CCCCOc3ccc(C4=NNC(=O)CC4)c(F)c3F)n2)c2nc(C(F)(F)F)[nH]c12 [Example 278, 2-[4-[2,3-Difluoro-4-(6-oxo-1,4,5,6-tetrahydropyridazin-3-yl)phenoxy]butyl]-6-(4-methoxy-2-trifluoromethyl-1H-benzimidazol-7-yl)-2H-pyridazin-3-one]	< 0.1	1 to 10	–	≥ 90	–
COc1ccc(-c2ccc(=O)n(CCCCOc3ccc(C4=NNC(=O)CC4)cc3F)n2)c2ccc(C)nc12 [Example 272, 2-[4-[2-Fluoro-4-(6-oxo-1,4,5,6-tetrahydropyridazin-3-yl)phenoxy]butyl}-6-(8-methoxy-2-methylquinolin-5-yl)-2H-pyridazin-3-one]	0.1 to 1	< 0.1	–	70 to 80	–
COc1ccc(C2=NN(CCCCOc3ccc(C4=NNC(=O)CC4C)cc3)C(=O)CC2C)c2ccc(C(C)C)nc12 (stereo not drawn) [Example 269, 6-(8-Methoxy-2-isopropylquinolin-5-yl)-5-methyl-2-[4-[4-(4-methyl-6-oxo-1,4,5,6-tetrahydropyridazin-3-yl)phenoxy]butyl]-4,5-dihydro-2H-pyridazin-3-one]	< 0.1	0.1 to 1	80 to 90	–	–
COc1ccc(-c2ccc(=O)n(CCCCOc3ccc(C4=NNC(=O)CC4)c(F)c3F)n2)c2nc(C(F)(F)F)nn12 [Example 305, 2-[4-[2,3-Difluoro-4-(6-oxo-1,4,5,6-tetrahydropyridazin-3-yl)phenoxy]butyl]-6-(5-methoxy-2-trifluoromethyl-[1,2,4]triazolo[1,5-a]pyridin-8-yl)-2H-pyridazin-3-one]	0.1 to 1	1 to 10	–	≥ 90	–

More lines, main results first:

IC50 [1] [µmol/L]	IC50 [2] [µmol/L]	Compound	inhibition in vivo at 0.1 mg/kg [3] [%]	inhibition in vivo at 0.3 mg/kg ([3]; compound 0.3 mg/kg, i.v.) [%]	Inhibition rate (histamine-induced bronchoconstriction) ([3]; compound 0.3 mg/kg, i.v.)
< 0.1	< 0.1	CCc1ccc2c(-c3ccc(=O)n(CCCCOc4ccc(C5=NNC(=O)C5(C)C)c(F)c4F)n3)ccc(OC)c2n1 [Example 290, 6-(2-Ethyl-8-methoxyquinolin-5-yl)-2-[4-[2,3-difluoro-4-(4,4-dimethyl-5-oxo-4,5-dihydro-1H-pyrazol-3-yl)phenoxy]butyl]-2H-pyridazin-3-one]	–	≥ 90	–
< 0.1	1 to 10	COc1ccc(-c2ccc(=O)n(CCCCOc3ccc(C4=NNC(=O)C4(C)C)c(F)c3F)n2)c2nc(C(F)(F)F)[nH]c12 [Example 277, 2-[4-[2,3-Difluoro-4-(4,4-dimethyl-5-oxo-4,5-dihydro-1H-pyrazol-3-yl)phenoxy]butyl]-6-(4-methoxy-2-trifluoromethyl-1H-benzimidazol-7-yl)-2H-pyridazin-3-one]	–	80 to 90	–
< 0.1	0.1 to 1	COc1ccc(C2=NN(CCCCOc3ccc(C4=NNC(=O)CC4C)cc3)C(=O)CC2C)c2cccnc12 (stereo not drawn) [Example 316, 6-(8-Methoxyquinolin-5-yl)-5-methyl-2-[4-[4-(4-methyl-6-oxo-1,4,5,6-tetrahydropyridazin-3-yl)phenoxy]butyl]-4,5-dihydro-2H-pyridazin-3-one]	≥ 90	–	–
< 0.1	< 0.1	CCc1ccc2c(C3=NN(CCCCOc4ccc(C5=NNC(=O)CC5C)cc4F)C(=O)CC3C)ccc(OC)c2n1 (stereo not drawn) [Example 294, 6-(2-Ethyl-8-methoxyquinolin-5-yl)-5-methyl-2-[4-[2-fluoro-4-(4-methyl-6-oxo-1,4,5,6-tetrahydropyridazin-3-yl)phenoxy]butyl]-4,5-dihydro-2H-pyridazin-3-one]	≥ 90	–	–
< 0.1	0.1 to 1	COc1ccc(-c2ccc(=O)n(CCCCOc3ccc(C4=NNC(=O)CC4C)cc3)n2)c2cccnc12 (stereo not drawn) [Example 318, 6-(8-Methoxyquinolin-5-yl)-2-[4-[4-(4-methyl-6-oxo-1,4,5,6-tetrahydropyridazin-3-yl)phenoxy]butyl]-2H-pyridazin-3-one]	–	≥ 90	–
< 0.1	0.1 to 1	CCc1ccc2c(C3=NN(CCCCOc4ccc(C5=NNC(=O)CC5C)cc4)C(=O)CC3C)ccc(OC)c2n1 (single isomer, unassigned) [Example 342, 6-(2-Ethyl-8-methoxyquinolin-5-yl)-5-methyl-2-[4-[4-(4-methyl-6-oxo-1,4,5,6-tetrahydropyridazin-3-yl)phenoxy]butyl]-4,5-dihydro-2H-pyridazin-3-one]	–	–	+++ (inhibition rate≧90% (+++))
